According to patent US8563562B2, “Compounds having antiviral properties” (priority 2008, dated 2013):

Key:
Type in all cases: cell-based
HIV WT integrase = assay: PhenoScreen (Phenosense) assay, single-round luciferase pseudotyped HIV; conditions: Human immunodeficiency virus 1, read-out: Activity, Phenosense assay, WT
From the text: (§1) Monogram Bioscience' PhenoScreen assay allows the evaluation of integrase inhibitors for activity against a variety of HIV variants. The assay uses virus generated from 2 DNA constructs; one containing the HIV LTR, gag and pol regions, as well as a luciferase reporter gene in place of the viral envelope genes, and a second DNA construct containing the amphotrophic murine leukemia virus (A-MLV) envelope gene required to pseudotype virions and render them capable of entry into a target cell. Viruses generated using these constructs by transfection into a producer cell line such as 293T are capable of one-round of infection only. Successful integration events are directly proportional to the levels of luciferase expression 48 h after infection.
(§2) The viral variants chosen by the present inventors to screen integration inhibitors consist of mutations within the viral integrase enzyme known to confer resistance to a number of known integration inhibitors published in the literature. In particular, the viral variants containing the Q148H/G140S double mutation in integrase, and the N155H/E92Q double mutation in integrase, represent two of the more common viruses identified to arise in patients that are failing treatment with Isentress (Raltegravir, MK-0518).

[1] = system: HIV variant E92Q/N155H integrase; assay: as above; conditions: Human immunodeficiency virus 1, read-out: Activity, Phenosense assay, E92Q/N155H
From the text: as §1, §2

[2] = system: HIV variant G140S/Q148H integrase; assay: as above; conditions: Human immunodeficiency virus 1, read-out: Activity, Phenosense assay, G140S Q148H
From the text: as §1, §2

[3] = system: HIV variant T125K/F121Y integrase; assay: as above; conditions: Human immunodeficiency virus 1, read-out: Activity, Phenosense assay, T125K F121Y
From the text: as §1, §2

[4] = system: HIV variant T661/S153Y integrase; assay: as above; conditions: Human immunodeficiency virus 1, read-out: Activity, Phenosense assay, T661 S153Y
From the text: as §1, §2

[5] = system: HIV variant Y143R integrase; assay: as above; conditions: Human immunodeficiency virus 1, read-out: Activity, Phenosense assay, Y143R
From the text: as §1, §2

[6] = system: HIV-1 reporter virus, Q148H/G140S (QHGS) integrase; assay: Luciferase reporter virus infectivity assay in 293T cells; conditions: Human immunodeficiency virus 1, HEK-293T, 48 h, read-out: Luciferase assay EC50, QHGS
From the text: (§3) Infectivity assays using reporter viruses derived from lentiviral vectors capable of a single round of infection were used to determine the activity (EC50) of compounds. The DNA used to generate viruses for infection was the full-length HIV-1 genome which had been envelope-deleted. In addition, a reporter gene (the firefly luciferase gene from Photinus pyralis) was cloned into the nef region of the HIV backbone for ease of assay readout. […]. Culture supernatants containing VSV-G pseudotyped virions were harvested 64 h post transfection, clarified by centrifugation to remove cell debris, and frozen at −70° C. until use.
(§4) HIV integrase was mutated within a shuttle vector (pGEM) containing the majority of the HIV-1 gag and pol sequence using site-directed mutagenesis to generate sequences that are known to confer resistance to published integrase inhibitors. These include but are not limited to mutations such as Q148H/G140S (in table #QHGS), N155H/E92Q (in table #NHEQ), F121Y/T124K (in table FYTK), Y143R (in table #Y143R) and the triple mutant Q148K/G140A/E138A. (in table#QKGAEA). The mutated integrase coding region within the shuttle vector was sequence verified, and then exchanged for the wild-type (WT) coding sequence in the reporter virus DNA backbone.
(§5) 293T cells were plated out at 12000 cells per well in CellView 96-well cell culture plates (Invitrogen) 16 h prior to compound addition. Compounds were preincubated with cells for 4 h at 37° C. prior to the addition of virus sufficient to generate approximately 10000 Luciferase light units (as measured by the Victor Wallace luminometer) upon assaying using the Bright-Glo™ reagent (Promega) according to the manufacturer's instructions at 48 h post infection.

[7] = system: HIV-1 reporter virus, N155H/E92Q (NHEQ) integrase; assay: as above; conditions: Human immunodeficiency virus 1, HEK-293T, 48 h, read-out: Luciferase assay EC50, NHEQ
From the text: as §3, §4, §5

[8] = system: HIV-1 reporter virus, Q148K/G140A/E138A (QKGAEA) integrase; assay: as above; conditions: Human immunodeficiency virus 1, HEK-293T, 48 h, read-out: Luciferase assay EC50, QKGAEA
From the text: as §3, §4, §5

[9] = system: HIV-1 reporter virus, Y143R integrase; assay: as above; conditions: Human immunodeficiency virus 1, HEK-293T, 48 h, read-out: Luciferase assay EC50, Y143R
From the text: as §3, §4, §5

[10] = system: HIV-1 reporter virus, wild-type (WT) integrase; assay: as above; conditions: Human immunodeficiency virus 1, HEK-293T, 48 h, read-out: Luciferase assay EC50, WT
From the text: as §3, §4, §5

| Structure (SMILES) | EC50 [6] | EC50 [7] | EC50 [10] | further results |
| --- | --- | --- | --- | --- |
| O=C(NCc1ccc(Cl)c(Cl)c1)c1nc2ccc(N3CCOCC3)cn2c(=O)c1O [Comparative example 1, reference compound] |  |  |  | EC50 (HIV WT integrase): 1 to 100 nM; EC50 [1]: > 10000 nM; EC50 [2]: > 10000 nM |
| Cc1ccc2nc(-c3ncc(Cc4ccc(F)cc4)s3)c(O)c(=O)n2c1 [Comparative example 2, reference compound] |  |  |  | EC50 (HIV WT integrase): 100 to 1000 nM; EC50 [1]: 1000 to 10000 nM; EC50 [2]: 1000 to 10000 nM; EC50 [3]: 100 to 1000 nM; EC50 [4]: 100 to 1000 nM; EC50 [5]: 100 to 1000 nM |
| O=C(NCc1ccc(F)cc1)c1nc2c(I)cc(N3CCOCC3)cn2c(=O)c1O [Comparative example 3, reference compound] |  |  |  | EC50 (HIV WT integrase): 1 to 100 nM; EC50 [1]: 1 to 100 nM; EC50 [2]: > 10000 nM; EC50 [3]: 1 to 100 nM; EC50 [4]: 1 to 100 nM; EC50 [5]: 1 to 100 nM |
| O=c1c(O)c(-c2ncc(Cc3ccc(F)cc3)[nH]2)nc2c(Br)cc(N3CCOCC3)cn12 [Example 47, 2-(9-Bromo-3-hydroxy-7-morpholin-4-yl-4-oxo-4H-pyrido[1,2-a]pyrimidin-2-yl)-5-(4-fluoro-benzyl)-1H-imidazol-1-ium chloride] | 100 to 1000 nM |  |  |  |
| CC(=O)c1cc(N2CCOCC2)cn2c(=O)c(O)c(-c3ncc(Cc4ccc(F)cc4)s3)nc12 [Example 53, 9-Acetyl-2-[5-(4-fluoro-benzyl)-thiazol-2-yl]-3-hydroxy-7-morpholin-4-yl-pyrido[1,2-a]pyrimidin-4-one] | 100 to 1000 nM |  |  |  |
| CC(C)N1CCN(c2cc(N3CCOCC3)cn3c(=O)c(O)c(-c4ncc(Cc5ccc(F)cc5)s4)nc23)C1=O [Example 56, 2-[5-(4-Fluoro-benzyl)-thiazol-2-yl]-3-hydroxy-9-(3-isopropyl-2-oxo-imidazolidin-1-yl)-7-morpholin-4-yl-pyrido[1,2-a]pyrimidin-4-one] | 1 to 100 nM | 1 to 100 nM | 1 to 100 nM | EC50 [8]: 1 to 100 nM; EC50 [9]: 1 to 100 nM |
| CN1CCN(c2cc(N3CCOCC3)cn3c(=O)c(O)c(-c4ncc(Cc5ccc(F)c(Cl)c5)s4)nc23)C1=O [Example 60, 2-[5-(3-Chloro-4-fluoro-benzyl)-thiazol-2-yl]-3-hydroxy-9-(3-methyl-2-oxo-imidazolidin-1-yl)-7-morpholin-4-yl-pyrido[1,2-a]pyrimidin-4-one] | 1 to 100 nM | 1 to 100 nM | 1 to 100 nM | EC50 [8]: 1 to 100 nM; EC50 [9]: 1 to 100 nM |
| CN1CCN(c2cc(N(C)C)cn3c(=O)c(O)c(-c4ncc(Cc5ccc(F)cc5)s4)nc23)C1=O [Example 70, 7-Dimethylamino-2-[5-(4-fluoro-benzyl)-thiazol-2-yl]-3-hydroxy-9-(3-methyl-2-oxo-imidazolidin-1-yl)-pyrido[1,2-a]pyrimidin-4-one] | 1 to 100 nM | 1 to 100 nM | 1 to 100 nM |  |
| CN1CCN(c2cc(N(C)C)cn3c(=O)c(O)c(-c4ncc(Cc5ccc(F)cc5)[nH]4)nc23)C1=O [Example 72, 2-(7-(dimethylamino)-3-hydroxy-9-(3-methyl-2-oxoimidazolidin-1-yl)-4-oxo-4H-pyrido[1,2-a]pyrimidin-2-yl)-5-(4-fluorobenzyl)-1H-imidazol-3-ium chloride] | 100 to 1000 nM |  |  |  |
| CN1CCN(c2cc(N3CCOCC3)cn3c(=O)c(O)c(-c4ncc(Cc5ccc(F)c(Cl)c5)[nH]4)nc23)C1=O [Example 77, 5-(3-chloro-4-fluorobenzyl)-2-(3-hydroxy-9-(3-methyl-2-oxoimidazolidin-1-yl)-7-morpholino-4-oxo-4H-pyrido[1,2-a]pyrimidin-2-yl)-1H-imidazol-3-ium chloride] | 100 to 1000 nM | 1 to 100 nM | 1 to 100 nM |  |
| CN1CCN(c2cc(N3CCOCC3)cn3c(=O)c(O)c(-c4ncc(Cc5ccc(F)c(F)c5)[nH]4)nc23)C1=O [Example 79, 5-(3,4-difluorobenzyl)-2-(3-hydroxy-9-(3-methyl-2-oxoimidazolidin-1-yl)-7-morpholino-4-oxo-4H-pyrido[1,2-a]pyrimidin-2-yl)-1H-imidazol-3-ium chloride] | 100 to 1000 nM | 1 to 100 nM | 1 to 100 nM |  |
| O=C1CCCN1c1cc(N2CCOCC2)cn2c(=O)c(O)c(-c3ncc(Cc4ccc(F)cc4)[nH]3)nc12 [Example 83, 5-(4-fluorobenzyl)-2-(3-hydroxy-7-morpholino-4-oxo-9-(2-oxopyrrolidin-1-yl)-4H-pyrido[1,2-a]pyrimidin-2-yl)-1H-imidazol-3-ium chloride] | 100 to 1000 nM |  |  |  |
| O=C1OCCN1c1cc(N2CCOCC2)cn2c(=O)c(O)c(-c3ncc(Cc4ccc(F)cc4)[nH]3)nc12 [Example 87, 5-(4-fluorobenzyl)-2-(3-hydroxy-7-morpholino-4-oxo-9-(2-oxooxazolidin-3-yl)-4H-pyrido[1,2-a]pyrimidin-2-yl)-1H-imidazol-3-ium chloride] | 100 to 1000 nM |  |  |  |
| CN1CCN(c2cc(N3CCOCC3)cn3c(=O)c(O)c(-c4ncc(Cc5ccc(F)cc5)[nH]4)nc23)S1(=O)=O [Example 91, 4-(4-Fluoro-benzyl)-2-[3-hydroxy-9-(5-methyl-1,1-dioxo-116-[1,2,5]thiadiazolidin-2-yl)-7-morpholin-4-yl-4-oxo-4H-pyrido[1,2-a]pyrimidin-2-yl]-3H-imidazol-1-ium; chloride] | 1 to 100 nM | 1 to 100 nM | 1 to 100 nM |  |
| CN(c1cc(N2CCOCC2)cn2c(=O)c(O)c(-c3ncc(Cc4ccc(F)cc4)[nH]3)nc12)S(C)(=O)=O [Example 95, 5-(4-fluorobenzyl)-2-(3-hydroxy-9-(N-methylmethylsulfonamido)-7-morpholino-4-oxo-4H-pyrido[1,2-a]pyrimidin-2-yl)-1H-imidazol-3-ium chloride] | 100 to 1000 nM | 1 to 100 nM | 1 to 100 nM |  |
| O=C1CCCN1c1cc(N2CCOCC2)cn2c(=O)c(O)c(-c3ncc(Cc4ccc(F)cc4)s3)nc12 [Example 97, 2-[5-(4-Fluoro-benzyl)-thiazol-2-yl]-3-hydroxy-7-morpholin-4-yl-9-(2-oxo-pyrrolidin-1-yl)-pyrido[1,2-a]pyrimidin-4-one] | 100 to 1000 nM |  |  |  |
| O=c1c(O)c(-c2ncc(Cc3ccc(Cl)c(Cl)c3)s2)nc2c(N3CCCS3(=O)=O)cc(N3CCOCC3)cn12 [Example 108, 2-[5-(3,4-Dichloro-benzyl)-thiazol-2-yl]-9-(1,1-dioxo-116-isothiazolidin-2-yl)-3-hydroxy-7-morpholin-4-yl-pyrido[1,2-a]pyrimidin-4-one] | 100 to 1000 nM |  | 1 to 100 nM |  |
| CN1CCN(c2cc(N3CCOCC3)cn3c(=O)c(O)c(-c4ncc(Cc5ccc(F)cc5)[nH]4)nc23)C1=O [Example 109, 5-(4-Fluoro-benzyl)-2-[3-hydroxy-9-(3-methyl-2-oxo-imidazolidin-1-yl)-7-morpholin-4-yl-4-oxo-4H-pyrido[1,2-a]pyrimidin-2-yl]-1H-imidazol-1-ium; chloride] | 100 to 1000 nM | 100 to 1000 nM | 1 to 100 nM |  |
